Here are results for 14 compounds from patent US20230077362A1 (CORTEVA AGRISCIENCE LLC, priority 2019, published 2023).

Like-named read-outs stand apart in the source and are kept apart here.

Assay type in all cases: in vivo
Experiment [1] has as its system Beet Armyworm (Spodoptera exigua) ("BAW"), second instar larvae. As to the kind of experiment: Bioassay on beet armyworm (BAW), 128-well diet tray assay. Particulars: Spodoptera exigua. An outline of the steps:
(§1)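 Each value represents average percent mortality from eight wells. Larvae were kept in clear-covered trays at 25° C. for five to seven days on a 14-hour light, 10-hour dark schedule before scoring.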

Experiment [2] concerns Cabbage Looper (Trichoplusia ni) ("CL"), second instar larvae. Description: Bioassay on cabbage looper (CL), 128-well diet tray assay. Particulars: Trichoplusia ni. An outline of the steps: as §1
For experiment [3], the system named is Green Peach Aphid ("GPA") (Myzus persicae), wingless adult and nymph stages. As to the kind of experiment: Bioassay on green peach aphid (GPA), foliar spray on infested cabbage seedlings. Particulars: Myzus persicae, foliar, 72 h. An outline of the steps:
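Cabbage seedlings with 2-3 true leaves, infested one day earlier with 20-50 wingless adult and nymph GPA, sprayed to runoff on both leaf sides; solvent check held 20% acetone/methanol (1:1). Live aphids counted after three days at about 25° C; corrected % control = 100*(X−Y)/X versus solvent check.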

In experiment [4] the test system is Cabbage Looper (Trichoplusia ni) ("CL"). As to the kind of experiment: Bioassay on Cabbage Looper (CL), Example D, procedure of Example A. Particulars: read-out: CL % Control (or Mortality) Rating. As to the method:
(§2) Example D: Bioassays on Cabbage Looper (Trichoplusia ni) (“CL”) and Diamondback Moth (Plutella xylostella) (“DBM”)
(§3) Certain molecules disclosed in this document were tested against CL and DBM (diamondback moth, Plutella xylostella) using procedures described above for BAW and CL (Example A). The results are reported as in the “CL & DBM Rating Table” at concentrations of 0.0005 and 0.00005 ppm, respectively, and are given Table D.

The test system of experiment [5] is Diamondback Moth (Plutella xylostella) ("DBM"). As to the kind of experiment: Bioassay on Diamondback Moth (DBM), Example D, procedure of Example A. Particulars: 0.00005 ppm, read-out: DBM % Control (or Mortality) Rating. As to the method:
as §2, §3

In experiment [6] the test system is Yellow Fever Mosquito "YFM" (Aedes aegypti), about 1 day-old larvae. As to the kind of experiment: Bioassay on yellow fever mosquito (YFM), 96-well plate larval assay. The settings on record: for YFM (Biological Results, rating): Yellow Fever Mosquito (Aedes aegypti) larvae, scored on mortality after 3 days, C = Not Tested; for YFM rating: Table ABC, species YFM, mortality scored after 3 days, C = not tested, D = no activity noticed. As to the method:
Example C: Bioassays on Yellow Fever Mosquito “YFM” (Aedes aegypti)
Certain molecules disclosed in this document were tested against YFM using procedures described in the following paragraph. In the reporting of the results, the “YFM Rating Table” was used (See Table Section).
Master plates containing 400 μg of a molecule dissolved in 100 μL of dimethyl sulfoxide (DMSO) (equivalent to a 4000 ppm solution) are used. A master plate of assembled molecules contains 15 μL per well. To this plate, 135 μL of a 90:10 water:acetone mixture is added to each well. A robot (Biomek® NXP Laboratory Automation Workstation) is programmed to dispense 15 μL aspirations from the master plate into an empty 96-well shallow plate (“daughter” plate). There are 6 reps (“daughter” plates) created per master. The created daughter plates are then immediately infested with YFM larvae.
The day before plates are to be treated, mosquito eggs are placed in Millipore water containing liver powder to begin hatching (4 g. into 400 mL). After the daughter plates are created using the robot, they are infested with 220 μL of the liver powder/larval mosquito mixture (about 1 day-old larvae). After plates are infested with mosquito larvae, a non-evaporative lid is used to cover the plate to reduce drying. Plates are held at room temperature for 3 days prior to grading. After 3 days, each well is observed and scored based on mortality.

The mark [7] stands for this setting: read-out: BAW (Biological Results, rating).
The mark [8] stands for this setting: read-out: CL (Biological Results, rating).
Setting [9] is: read-out: GPA (Biological Results, rating).

Broadly, the mortality is the percentage killed. For the compound `Cc1ccc(C)c(N2C(=O)CS/C2=N\C(=O)Nc2ccc(-c3ncn(-c4ccc(OC(F)(F)F)cc4)n3)cc2)c1` [Compound C2], the pest or weed control at 50 µg/cm2 in experiment [1] (setting [7]) and in experiment [2] (setting [8]) was 50 to 100% each time. In experiment [3] (setting [9]), the pest or weed control at 200 µg/mL fell in the range of 0 to 80%. Moreover, in experiment [4], the mortality at 0.0005 ppm fell in the range of 0 to 15%. In experiment [5], the mortality at 5e-05 ppm was in the range of 0 to 15%.

As for `Cc1ccc(C(F)(F)F)c(N2C(=O)CS/C2=N\C(=O)NCCc2ccc(-c3ncn(-c4ccc(OC(F)(F)F)cc4)n3)cc2)c1` [Compound H1], the pest or weed control at 50 µg/cm2 in experiment [1] (setting [7]) and in experiment [2] (setting [8]) was 50 to 100% throughout. Besides, the pest or weed control at 200 µg/mL in experiment [3] (setting [9]) was in the range of 0 to 80%. Also, in experiment [6], the “YFM (Biological Results, rating)” value is on record as “A (80-100)”. Also, the mortality at 0.0005 ppm in experiment [4] fell in the range of 16 to 50%. Also, in experiment [5], the mortality at 5e-05 ppm is 16 to 50%.

With `Cc1ccc(C(F)(F)F)c(N2C(=O)CS/C2=N\C(=O)NCC(F)c2ccc(-c3ncn(-c4ccc(OC(F)(F)F)cc4)n3)cc2)c1` (stereo not drawn) [Compound H2], the pest or weed control at 50 µg/cm2 in experiment [1] (setting [7]) and in experiment [2] (setting [8]) was 50 to 100% throughout. Further, the pest or weed control at 200 µg/mL in experiment [3] (setting [9]) was 80 to 100%. Also, in experiment [4], the mortality at 0.0005 ppm is 51 to 100%. Further, the mortality at 5e-05 ppm in experiment [5] fell in the range of 51 to 100%.

Regarding `Cc1ccc(C(F)(F)F)c(N2C(=O)CS/C2=N\C(=O)N[C@H](C)Cc2ccc(-c3ncn(-c4ccc(OC(F)(F)F)cc4)n3)cc2)c1` [Compound H3], the pest or weed control at 50 µg/cm2 in experiment [1] (setting [7]) and in experiment [2] (setting [8]) was 50 to 100% each time. In experiment [3] (setting [9]), the pest or weed control at 200 µg/mL lay in the range of 80 to 100%. Further, the “YFM (Biological Results, rating)” value in experiment [6] is given as “A (80-100)”.

As to `O=C(/N=C1\SCC(=O)N1c1ccccc1C(F)F)NCCc1ccc(-c2ncn(-c3ccc(OC(F)(F)F)cc3)n2)cc1` [Compound H11], the pest or weed control at 50 µg/cm2 in experiment [1] (setting [7]) and in experiment [2] (setting [8]) was 50 to 100% each time. Further, the pest or weed control at 200 µg/mL in experiment [3] (setting [9]) fell in the range of 0 to 80%. Besides, the “YFM (Biological Results, rating)” value in experiment [6] was “A (80-100)”.

For the compound `Cc1ccc(C(F)(F)F)c(N2C(=O)CS/C2=N\C(=O)Nc2ccc(-c3ncn(-c4ccc(OC(F)(F)F)cc4)n3)cc2)c1` [Compound H20], the pest or weed control at 50 µg/cm2 in experiment [1] (setting [7]) and in experiment [2] (setting [8]) was 50 to 100% in each case. The pest or weed control at 200 µg/mL in experiment [3] (setting [9]) is 0 to 80%. Moreover, in experiment [4], the mortality at 0.0005 ppm was in the range of 16 to 50%. Also, in experiment [5], the mortality at 5e-05 ppm fell in the range of 51 to 100%.

Take `CC(F)(F)c1ccccc1N1C(=O)CS/C1=N\C(=O)NCCc1ccc(-c2ncn(-c3ccc(OC(F)(F)F)cc3)n2)cc1` [Compound H21]: the pest or weed control at 50 µg/cm2 in experiment [1] (setting [7]) and in experiment [2] (setting [8]) was 50 to 100% in each case. The pest or weed control at 200 µg/mL in experiment [3] (setting [9]) was in the range of 0 to 80%. Moreover, the “YFM (Biological Results, rating)” value in experiment [6] is listed as “A (80-100)”.

As to `Cc1cc(-c2cn(-c3ccc(C(F)(F)F)cn3)cn2)ccc1NC(=O)/N=C1\SCC(=O)N1c1cc(N(C)C)ccc1C(C)C` [Compound J510, (Z)-1-(3-(5-(Dimethylamino)-2-isopropylphenyl)-4-oxothiazolidin-2-ylidene)-3-(2-methyl-4-(1-(5-(trifluoromethyl)pyridin-2-yl)-1H-imidazol-4-yl)phenyl)urea], the pest or weed control at 50 µg/cm2 in experiment [1] (read-out: BAW rating) and in experiment [2] (read-out: CL rating) was 50 to 100% throughout. In addition, the pest or weed control at 200 µg/mL in experiment [3] (read-out: GPA rating) was 0 to 80%. The YFM rating result in experiment [6] is recorded as “A (80-100)”.

As for `Cc1cc(-c2ncn(-c3ccc(OC(F)(F)F)cc3)n2)ccc1NC(=O)/N=C1\SCC(=O)N1c1ccccc1COCC(F)(F)F` [Compound J653, (Z)-1-(2-Methyl-4-(1-(4-(trifluoromethoxy)phenyl)-1H-1,2,4-triazol-3-yl)phenyl)-3-(4-oxo-3-(2-((2,2,2-trifluoroethoxy)methyl)phenyl)thiazolidin-2-ylidene)urea], the pest or weed control at 50 µg/cm2 in experiment [1] (read-out: BAW rating) and in experiment [2] (read-out: CL rating) was 50 to 100% each time. The pest or weed control at 200 µg/mL in experiment [3] (read-out: GPA rating) was in the range of 0 to 80%. Further, the YFM rating result in experiment [6] was “A (80-100)”.

Consider `O=C(/N=C1\SCC(=O)N1c1cc(Cl)ccc1COCc1ccccc1)Nc1ccc(-c2ncn(-c3ccc(OC(F)(F)F)cc3)n2)cc1F` [Compound J719, (Z)-1-(3-(2-((Benzyloxy)methyl)-5-chlorophenyl)-4-oxothiazolidin-2-ylidene)-3-(2-fluoro-4-(1-(4-(trifluoromethoxy)phenyl)-1H-1,2,4-triazol-3-yl)phenyl)urea], for which the pest or weed control at 50 µg/cm2 in experiment [1] (read-out: BAW rating) and in experiment [2] (read-out: CL rating) was 50 to 100% in each case. Besides, the pest or weed control at 200 µg/mL in experiment [3] (read-out: GPA rating) fell in the range of 0 to 80%. In addition, the YFM rating result in experiment [6] is listed as “A (80-100)”.

Consider `O=C(/N=C1\SCC(=O)N1c1ccccc1COCc1ccccc1)Nc1ccc(-c2ncn(-c3ccc(OC(F)(F)F)cc3)n2)cc1F` [Compound J742, (Z)-1-(3-(2-((Benzyloxy)methyl)phenyl)-4-oxothiazolidin-2-ylidene)-3-(2-fluoro-4-(1-(4-(trifluoromethoxy)phenyl)-1H-1,2,4-triazol-3-yl)phenyl)urea], for which the pest or weed control at 50 µg/cm2 in experiment [1] (read-out: BAW rating) and in experiment [2] (read-out: CL rating) was 50 to 100% each time. For the same compound, the pest or weed control at 200 µg/mL in experiment [3] (read-out: GPA rating) lay in the range of 0 to 80%. Further, in experiment [6], the YFM rating entry is “A (80-100)”.

As to `Cc1ccc(COCc2ccccc2)c(N2C(=O)CS/C2=N\C(=O)Nc2ccc(-c3ncn(-c4ccc(C(F)(F)F)cc4)n3)cc2F)c1` [Compound J747, (Z)-1-(3-(2-((Benzyloxy)methyl)-5-methylphenyl)-4-oxothiazolidin-2-ylidene)-3-(2-fluoro-4-(1-(4-(trifluoromethyl)phenyl)-1H-1,2,4-triazol-3-yl)phenyl)urea], the pest or weed control at 50 µg/cm2 in experiment [1] (read-out: BAW rating) and in experiment [2] (read-out: CL rating) was 50 to 100% throughout. Further, in experiment [3] (read-out: GPA rating), the pest or weed control at 200 µg/mL is 0 to 80%. Further, the YFM rating result in experiment [6] was “A (80-100)”.

`Cc1ccc(COCC(F)(F)F)c(N2C(=O)CS/C2=N\C(=O)Nc2ccc(-c3ncn(-c4ccnc(OCC(F)(F)F)c4)n3)cc2F)c1` [Compound J750, (Z)-1-(2-Fluoro-4-(1-(2-(2,2,2-trifluoroethoxy)pyridin-4-yl)-1H-1,2,4-triazol-3-yl)phenyl)-3-(3-(5-methyl-2-((2,2,2-trifluoroethoxy)methyl)phenyl)-4-oxothiazolidin-2-ylidene)urea]: the pest or weed control at 50 µg/cm2 in experiment [1] (read-out: BAW rating) and in experiment [2] (read-out: CL rating) was 50 to 100% throughout. Further, the YFM rating entry in experiment [6] is recorded as “A (80-100)”.

`Cc1ccc(COCC(F)(F)F)c(N2C(=O)CS/C2=N\C(=O)Nc2ccc(-c3ncn(-c4ccn(CC(F)(F)F)c(=O)c4)n3)cc2F)c1` [Compound J751, (Z)-1-(2-Fluoro-4-(1-(2-oxo-1-(2,2,2-trifluoroethyl)-1,2-dihydropyridin-4-yl)-1H-1,2,4-triazol-3-yl)phenyl)-3-(3-(5-methyl-2-((2,2,2-trifluoroethoxy)methyl)phenyl)-4-oxothiazolidin-2-ylidene)urea]: the pest or weed control at 50 µg/cm2 in experiment [1] (read-out: BAW rating) and in experiment [2] (read-out: CL rating) was 50 to 100% each time. Also, the pest or weed control at 200 µg/mL in experiment [3] (read-out: GPA rating) fell in the range of 0 to 80%. For the same compound, the YFM rating entry in experiment [6] is reported as “A (80-100)”.
